Measurements reported in the NIST ThermoML archive (doi:10.1021/acs.jced.8b00080).
Numbers after ± are expanded uncertainties.

Assay: activity coefficient (dimensionless); of the first substance listed, at infinite dilution; xn = mol fraction of the nth substance listed
Settings: 101.33 kPa, Liquid, Chromatography, x1 = 0

SMILES	activity coefficient (303 K)	activity coefficient (313 K)	activity coefficient (323 K)	activity coefficient (333 K)	activity coefficient (343 K)	activity coefficient (353 K)
Cc1ccccc1C [1,2-dimethylbenzene] + C[n+]1ccn(CCO)c1.O=S(=O)([O-])C(F)(F)C(F)(F)C(F)(F)C(F)(F)F	10.4 ± 0.37	9.7 ± 0.35	8.9 ± 0.32	7.81 ± 0.28	7.04 ± 0.25	6.52 ± 0.23
Cc1cccc(C)c1 [1,3-dimethylbenzene] + C[n+]1ccn(CCO)c1.O=S(=O)([O-])C(F)(F)C(F)(F)C(F)(F)C(F)(F)F	11.6 ± 0.42	10.8 ± 0.39	9.86 ± 0.35	8.71 ± 0.31	7.91 ± 0.28	7.2 ± 0.26
Cc1ccc(C)cc1 [1,4-dimethylbenzene] + C[n+]1ccn(CCO)c1.O=S(=O)([O-])C(F)(F)C(F)(F)C(F)(F)C(F)(F)F	11.9 ± 0.43	11 ± 0.39	9.88 ± 0.35	8.78 ± 0.31	8 ± 0.28	7.59 ± 0.27
C1COCCO1 [1,4-dioxane] + C[n+]1ccn(CCO)c1.O=S(=O)([O-])C(F)(F)C(F)(F)C(F)(F)C(F)(F)F	1.67 ± 0.09	1.64 ± 0.09	1.61 ± 0.09	1.59 ± 0.09	1.56 ± 0.09	1.53 ± 0.09
C=CCCCCCCCC [1-decene] + C[n+]1ccn(CCO)c1.O=S(=O)([O-])C(F)(F)C(F)(F)C(F)(F)C(F)(F)F	122 ± 4.5	107 ± 3.9	91.5 ± 3.3	79.6 ± 2.9	67.7 ± 2.5	59.2 ± 2.1
C#CCCCCC [1-heptyne] + C[n+]1ccn(CCO)c1.O=S(=O)([O-])C(F)(F)C(F)(F)C(F)(F)C(F)(F)F	16.7 ± 0.6	15.1 ± 0.54	13.4 ± 0.48	11.9 ± 0.43	10.4 ± 0.37	9.29 ± 0.33
C#CCCCC [1-hexyne] + C[n+]1ccn(CCO)c1.O=S(=O)([O-])C(F)(F)C(F)(F)C(F)(F)C(F)(F)F	10.4 ± 0.37	9.24 ± 0.33	7.92 ± 0.28	6.97 ± 0.25	6.03 ± 0.21	5.18 ± 0.19
C#CCCCCCC [1-octyne] + C[n+]1ccn(CCO)c1.O=S(=O)([O-])C(F)(F)C(F)(F)C(F)(F)C(F)(F)F	26.2 ± 0.94	23.8 ± 0.85	21.2 ± 0.76	19.1 ± 0.69	16.9 ± 0.61	14.8 ± 0.53
C#CCCC [1-pentyne] + C[n+]1ccn(CCO)c1.O=S(=O)([O-])C(F)(F)C(F)(F)C(F)(F)C(F)(F)F	5.99 ± 0.21	5.07 ± 0.18	4.21 ± 0.16	3.68 ± 0.14	3.11 ± 0.13	2.59 ± 0.12
CC(C)=O [acetone] + C[n+]1ccn(CCO)c1.O=S(=O)([O-])C(F)(F)C(F)(F)C(F)(F)C(F)(F)F	0.93 ± 0.08	0.91 ± 0.08	0.9 ± 0.08	0.88 ± 0.08	0.85 ± 0.08	0.83 ± 0.08
CC#N [acetonitrile] + C[n+]1ccn(CCO)c1.O=S(=O)([O-])C(F)(F)C(F)(F)C(F)(F)C(F)(F)F	0.99 ± 0.08	0.97 ± 0.08	0.93 ± 0.08	0.9 ± 0.08	0.87 ± 0.08	0.84 ± 0.08
c1ccccc1 [benzene] + C[n+]1ccn(CCO)c1.O=S(=O)([O-])C(F)(F)C(F)(F)C(F)(F)C(F)(F)F	4.71 ± 0.17	4.27 ± 0.16	3.85 ± 0.15	3.34 ± 0.13	2.95 ± 0.12	2.65 ± 0.12
C1CCCCC1 [cyclohexane] + C[n+]1ccn(CCO)c1.O=S(=O)([O-])C(F)(F)C(F)(F)C(F)(F)C(F)(F)F	24.3 ± 0.88	19.1 ± 0.69	15.2 ± 0.55	11.7 ± 0.42	9.39 ± 0.34	7.54 ± 0.27
ClCCl [dichloromethane] + C[n+]1ccn(CCO)c1.O=S(=O)([O-])C(F)(F)C(F)(F)C(F)(F)C(F)(F)F	2.14 ± 0.11	1.99 ± 0.1	1.85 ± 0.1	1.69 ± 0.09	1.54 ± 0.09	1.45 ± 0.09
CCO [ethanol] + C[n+]1ccn(CCO)c1.O=S(=O)([O-])C(F)(F)C(F)(F)C(F)(F)C(F)(F)F	1.56 ± 0.09	1.48 ± 0.09	1.38 ± 0.09	1.31 ± 0.09	1.22 ± 0.08	1.14 ± 0.08
CCc1ccccc1 [ethylbenzene] + C[n+]1ccn(CCO)c1.O=S(=O)([O-])C(F)(F)C(F)(F)C(F)(F)C(F)(F)F	12.1 ± 0.43	11 ± 0.39	10.1 ± 0.36	8.82 ± 0.31	7.93 ± 0.28	7.09 ± 0.25
CCCCCCC [heptane] + C[n+]1ccn(CCO)c1.O=S(=O)([O-])C(F)(F)C(F)(F)C(F)(F)C(F)(F)F	53 ± 1.9	39.7 ± 1.4	30.9 ± 1.1	23.6 ± 0.86	18 ± 0.65	13.9 ± 0.5
C=CCCCC [hex-1-ene] + C[n+]1ccn(CCO)c1.O=S(=O)([O-])C(F)(F)C(F)(F)C(F)(F)C(F)(F)F	15.7 ± 0.57	12.4 ± 0.45	9.71 ± 0.35	7.62 ± 0.27	6.07 ± 0.22	4.97 ± 0.18
CCCCCC [hexane] + C[n+]1ccn(CCO)c1.O=S(=O)([O-])C(F)(F)C(F)(F)C(F)(F)C(F)(F)F	23.5 ± 0.85	17.7 ± 0.64	13.7 ± 0.49	10.6 ± 0.38	8 ± 0.29	6.31 ± 0.23
CO [methanol] + C[n+]1ccn(CCO)c1.O=S(=O)([O-])C(F)(F)C(F)(F)C(F)(F)C(F)(F)F	1.1 ± 0.08	1.02 ± 0.08	0.93 ± 0.08	0.9 ± 0.08	0.87 ± 0.08	0.82 ± 0.08
CC1CCCCC1 [methylcyclohexane] + C[n+]1ccn(CCO)c1.O=S(=O)([O-])C(F)(F)C(F)(F)C(F)(F)C(F)(F)F	38.1 ± 1.4	29.7 ± 1.1	24.3 ± 0.88	19 ± 0.69	15.2 ± 0.55	12.3 ± 0.44
CCCCCCCCC [nonane] + C[n+]1ccn(CCO)c1.O=S(=O)([O-])C(F)(F)C(F)(F)C(F)(F)C(F)(F)F	157 ± 5.7	132 ± 4.8	105 ± 3.8	88 ± 3.2	71 ± 2.6	54.1 ± 2
C=CCCCCCC [oct-1-ene] + C[n+]1ccn(CCO)c1.O=S(=O)([O-])C(F)(F)C(F)(F)C(F)(F)C(F)(F)F	53.9 ± 2	45.2 ± 1.6	36.6 ± 1.3	29.5 ± 1.1	24.3 ± 0.88	19.9 ± 0.72
CCCCCCCC [octane] + C[n+]1ccn(CCO)c1.O=S(=O)([O-])C(F)(F)C(F)(F)C(F)(F)C(F)(F)F	99 ± 3.6	75.8 ± 2.8	61.2 ± 2.2	47.3 ± 1.7	37.1 ± 1.4	28.4 ± 1
CCCCC [pentane] + C[n+]1ccn(CCO)c1.O=S(=O)([O-])C(F)(F)C(F)(F)C(F)(F)C(F)(F)F	9.38 ± 0.34	6.94 ± 0.25	5.46 ± 0.2	4.34 ± 0.16	3.39 ± 0.14	2.75 ± 0.12
CCCO [propan-1-ol] + C[n+]1ccn(CCO)c1.O=S(=O)([O-])C(F)(F)C(F)(F)C(F)(F)C(F)(F)F	2.22 ± 0.11	2.07 ± 0.1	1.91 ± 0.1	1.81 ± 0.1	1.66 ± 0.09	1.53 ± 0.09
C1CCOC1 [tetrahydrofuran] + C[n+]1ccn(CCO)c1.O=S(=O)([O-])C(F)(F)C(F)(F)C(F)(F)C(F)(F)F	1.73 ± 0.1	1.7 ± 0.09	1.64 ± 0.09	1.59 ± 0.09	1.52 ± 0.09	1.48 ± 0.09
Cc1ccccc1 [toluene] + C[n+]1ccn(CCO)c1.O=S(=O)([O-])C(F)(F)C(F)(F)C(F)(F)C(F)(F)F	7.4 ± 0.26	6.83 ± 0.24	6.21 ± 0.22	5.44 ± 0.19	4.94 ± 0.18	4.44 ± 0.16
ClC(Cl)Cl [trichloromethane] + C[n+]1ccn(CCO)c1.O=S(=O)([O-])C(F)(F)C(F)(F)C(F)(F)C(F)(F)F	2.27 ± 0.11	2.2 ± 0.11	2.11 ± 0.1	2.01 ± 0.1	1.91 ± 0.1	1.84 ± 0.1
